In PMC11274654 (Biomedicines, 2024):

Test system: trabecular bone of OVX osteopenic rats
Experiment: OVX osteopenia model, micro-CT of trabecular bone
Type: in vivo, SD rats
Conditions: 235 mg/kg oral, 3 months
Method: The 10-month-old (265 ± 20 g) SD rats were ovariectomized (OVX) bilaterally and left for 3 months to develop osteopenia. Ovary-intact sham-operated animals were used as a control. A live animal micro-CT was performed to confirm osteopenia, followed by dividing the animals into 3 groups: Sham + vehicle (water, oral), OVX + vehicle (water, oral), and OVX + MTZ (235 mg/kg, oral). Each group had 9 rats, and treatment were administered for 3 months. Calcein (20 mg/kg, s.c.) was injected twice before sacrificing at 10-day intervals. A SkyScan 1076 μCT scanner (SkyScan, Ltd., Kartuizersweg, Kontich, Belgium) was used to perform a high-resolution μCT for the two-dimensional and three-dimensional assessment of excised bones. The rat bone scanning process used an isotropic voxel pixel size of 18 μm and an X-ray source of 70 kV and […]. Utilizing the SkyScan Nrecon software (Version: 1.7.0.4), cross-sectional reconstruction was performed. In order to examine the trabecular region of the femur and tibia, 100 slices were used to draw the region of interest (ROI), which was limited to the secondary spongiosa region 1.5 mm from the growth plate’s distal border. The primary spongiosa and cortical bone were not included in the ROI. A ROI was drawn on 70 slices of the mid-vertebral region for the L5 vertebral study. The Batman software (Version: 1.16.8.0+), with trabecular (3D) bone analysis programs was used for quantification.

[1] = femur and tibia metaphyses, OVX rats
[2] = proximal femur and tibia metaphyses, OVX rats

## Cc1ncc([N+](=O)[O-])n1CCO [Metronidazole]
L5, OVX rats
  Trabecular bone parameters at vertebra (L5): failed to restore
[1]
  Trabecular number (Tb.N): significant enhancement
  Trabecular spacing (Tb.sp): restored trabecular spacing (Tb.sp) to sham levels
  Trabecular thickness (Tb.Th): complete restoration
[2]
  BMD: significantly increased
  Bone volume (BV/TV): significantly increased
